Several values for one entry are separate records, joined by “and”; a condition that tells them apart may be missing. Equal values may be shown once. Read-outs that look alike come from different tables or passages of the source. Where a SMILES comes first, the peptide text is derived from it.
Experiments:
[1] = biological target: T1, human CIB2 (Homo sapiens, UniProt O75838); assay: SPR interaction of α7B peptides with immobilized CIB2; format: binding; conditions: for ka2 association rate constant, CIB2-α7B_M-CIB2 complex / koff / Kd: His-CIB2; for ka2 association rate constant, CIB2-α7B_M-CIB2 complex / kon / koff: average ± SEM; for kon: His-CIB2 on His-cap chip, peptide 230 nM–30 μM, read-out: ka1 association rate constant, CIB2-α7B_M complex; for Kd: ratio kd1/ka1, read-out: KD^app1 apparent affinity for the first binding event
T1 construct: made in house
T1 sequence (O75838 1-187): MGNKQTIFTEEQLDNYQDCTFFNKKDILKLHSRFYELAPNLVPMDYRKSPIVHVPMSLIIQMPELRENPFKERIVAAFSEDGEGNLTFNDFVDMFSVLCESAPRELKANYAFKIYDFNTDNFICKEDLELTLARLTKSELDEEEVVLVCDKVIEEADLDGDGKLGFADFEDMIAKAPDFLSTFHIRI
Text: SPR was also used to study quantitatively the interaction of CIB2 with one of its established targets, namely the cytoplasmic domain of integrin α7B[3],[7]. Three different peptides were used in the interaction experiments. A peptide corresponding to the membrane proximal segment of the cytoplasmic domain of α7B integrin (α7B_M), another peptide with the same amino acid content, but randomized sequence (α7B_Scrb) and a peptide covering the C-terminal region of the cytoplasmic domain of α7B integrin (α7B_C). Three different approaches were used. In a first approach, His-tagged CIB2 was initially coupled to the surface of a His-cap sensor chip (see Methods), thus ensuring homogeneous site-specific orientation, and then blocked via standard amine coupling. […] The minor differences in the spectra at the level of the phenylalanine band can be ascribed to the TEV-protease recognition site (ENLYFQ), uncleaved in the His-tagged protein. […] In a third approach, we used the same low levels of CIB2 immobilization via amine coupling described in the experiments to probe CIB2 dimerization (100–200 RU) and flowed the three peptides.
The second approach (direct peptide immobilization) led to very low signals and unreproducible results and was not pursued any further. […] In spite of such differences, which might reflect both the heterogeneity of the surface and the different chemistry of immobilization, interaction results were consistent with one another. […] It should be noted that both Huang et al.[7] and Häger et al.[3] used peptides from mouse integrin, while we used the corresponding human sequences, which in the case of α7B_C lacks the tryptophan residue present in the mouse sequence. It is not uncommon that fluorescence spectroscopy interaction studies based on the peptide intrinsic fluorescence (CIB2 has no tryptophan residue) reveal some non-specific binding, especially when a highly hydrophobic protein such as CIB2 is the ligand. […] It cannot be excluded that a similar phenomenon occurred for murine α7B_C in the work by Häger et al.[3]. Our present results, based on accurate, label-free interaction studies clearly identify the region covered by α7B_M as the preferential binding site of CIB2 with α7B integrin.
SPR titrations of α7B_M over homogeneously coupled CIB2 (approach 1) gave very reproducible results and were performed both in the presence of 1 mM Mg^2+ and in the co-presence of 1 mM Mg^2+ and 2 mM Ca^2+. Peptide concentration was varied in the 230 nM–30 μM range. As anticipated, sensorgrams could not fit to a 1:1 binding model, and the kinetic model that better fit the data was a bivalent analyte model (see Methods), in which one α7B_M peptide could bind to two CIB2 molecules. According to this scheme, binding of the peptide to the first CIB2 molecule would direct the binding to the second one, thus resulting in two sets of kinetic constants.
Details of the protein and peptide immobilization procedures and experimental settings are elucidated in the Supplementary Information.
Kinetic data were fitted according to a bivalent analyte model, were a CIB2 monomer (L) can bind an α7B_M peptide (A), and the resulting complex (AL) can bind to a second CIB2 molecule (AL2), with all processes being possibly reversible, as follows: A+L→ka1ALAL→kd1A+LAL+L→ka2AL2AL2→kd2AL+L […]

[2] = Native ESI-MS oligomeric state of CIB2; format: physicochemical; conditions: 14 µM CIB2 in 200 mM ammonium acetate, pH 6.8; collision energy 60 V
Protocol: For native ESI-MS analyses (High-Mass Q-TOF II mass spectrometer, Waters/MSVision), CIB2 was prepared in 200 mM ammonium acetate, pH 6.8.

[3] = Analytical size exclusion chromatography; format: physicochemical
Protocol: The molecular weight (MW) of the proteins was determined before and after DSBU-modification as previously described[7] in the same buffer (20 mM HEPES, pH 7.5, 1 mM DTT, 1 mM Mg^2+ and 2 mM Ca^2+). […] Standard calibration curve for MW estimation was the same used in our previous study.

[4] = cited from earlier work
Text: Moreover, DLS experiments performed with the samples collected immediately after elution from the SEC column measured a relatively high hydrodynamic diameter (d^Mg = 8.43 nm and d^Ca = 8.18 nm), which was also interpreted as an evidence of a dimeric protein[8]. […] This shoulder (here denominated A1) was collected together with the main peak (A2) in our previous work[8]. In contrast, the two fractions were separately collected and analyzed in the present study.

[5] = test system: CIB2; conditions: fused with GFP and tdTomato; cited from earlier work
Text: Our previous work with untagged purified CIB2 also concluded that CIB2 is dimeric. We now provide new lines of evidence that allow us to reconsider some of the previous findings in the light of MS ...

## CSCC[C@H](NC(=O)[C@H](CCCCN)NC(=O)[C@H](Cc1c[nH]c2ccccc12)NC(=O)[C@H](CC(C)C)NC(=O)[C@H](CC(C)C)NC(=O)[C@H](CC(C)C)NC(C)=O)C(=O)NCC(=O)N[C@@H](Cc1ccccc1)C(=O)N[C@@H](Cc1ccccc1)C(=O)N[C@@H](CCCCN)C(=O)N[C@@H](CCCNC(=N)N)C(=O)N[C@@H](C)C(=O)N[C@@H](CCCCN)C(=O)N[C@@H](Cc1c[nH]cn1)C(=O)N1CCC[C@H]1C(=O)N[C@@H](CCC(=O)O)C(N)=O [α7B_M] (Ac-LLLWKMGFFKRAKHPE-NH2)
[1]; His-CIB2 capture (7.5 µM peptide, or 230 nM–30 μM) and amine-coupled untagged CIB2 (7.5–30 µM), 1 mM Mg^2+, 2 mM Ca^2+, experiments repeated 4 times
  SPR interaction with CIB2: binds to CIB2 significantly stronger than the control peptide α7B_Scrb
[1]; KD^app1
  first-event affinity in Mg^2+ + Ca^2+ compared to Mg^2+ alone: roughly half affinity
[1]; Mg^2+ + Ca^2+ vs Mg^2+
  faster dissociation of the second CIB2 molecule in co-presence of Mg^2+ and Ca^2+: 2.5 times
[1]; SPR
  affinity for CIB2: relatively low affinity interaction
[1]; bivalent analyte model, 1 mM Mg^2+ 2 mM Ca^2+, pH 7.5, N = 15
  ka2 association rate constant, CIB2-α7B_M-CIB2 complex: (4.2 ± 0.5) × 10^−4 RU^−1s^−1
[1]; bivalent analyte model, 1 mM Mg^2+, 230 nM–30 μM, pH 7.5, N = 16
  ka2 association rate constant, CIB2-α7B_M-CIB2 complex: (1.9 ± 0.4) × 10^−3 RU^−1s^−1
[1]; bivalent analyte model, 1 mM Mg^2+, 20 mM HEPES pH 7.5, 150 mM KCl, 1 mM DTT, 50 µM EDTA, 0.005% Tween, N = 16
  kon: 31000 M⁻¹ s⁻¹
[1]; first binding event, Mg^2+ vs Mg^2+ + Ca^2+
  association of first CIB2 faster in sole Mg^2+ vs co-presence of Ca^2+ (fold): 2 fold
[1]; followed for 240 s, flow rate 20 μl min−1
  dissociation from CIB2: complete protein-peptide dissociation
[1]; pH 7.5, bivalent analyte model, 1 mM Mg^2+ 2 mM Ca^2+, pH 7.5, N = 15, read-out: kd1 dissociation rate constant, CIB2-α7B_M complex
  koff: 0.4 s⁻¹
[1]; pH 7.5, bivalent analyte model, 1 mM Mg^2+ 2 mM Ca^2+, pH 7.5, N = 15, read-out: kd2 dissociation rate constant, CIB2-α7B_M-CIB2 complex
  koff: 0.053 s⁻¹
[1]; pH 7.5, bivalent analyte model, 1 mM Mg^2+, 230 nM–30 μM, pH 7.5, N = 16, read-out: kd1 dissociation rate constant, CIB2-α7B_M complex
  koff: 0.36 s⁻¹
[1]; pH 7.5, bivalent analyte model, 1 mM Mg^2+, 230 nM–30 μM, pH 7.5, N = 16, read-out: kd2 dissociation rate constant, CIB2-α7B_M-CIB2 complex
  koff: 0.02 s⁻¹
[1]; pH 7.5, bivalent analyte model, 1 mM Mg^2+ 2 mM Ca^2+, pH 7.5, N = 15
  kon: 16000 M⁻¹ s⁻¹
[1]; 1 mM Mg^2+ 2 mM Ca^2+, pH 7.5, N = 15
  Kd: 25 ± 5 µM
[1]; 1 mM Mg^2+, pH 7.5, N = 16
  Kd: 11.6 ± 1.8 µM
[1]; second binding event, Mg^2+ vs Mg^2+ + Ca^2+
  association of second CIB2 faster in sole Mg^2+ vs co-presence of Ca^2+ (fold): 5 fold

B1: CIB2: Recombinant human CIB2, Ca^2+ and Mg^2+-binding protein (protein)
chain: T1 sequence (O75838 1-187)
modifications: left off: His tag, end not stated, cleaved
[2]
  oligomeric state, native MS: no signals of CIB2 dimers, nor higher order oligomers were detected
[3]; absence of cross-linker, 1 mM Mg^2+, 2 mM Ca^2+
  apparent MW (MW^SEC): 35.9 kDa
[3]; analytical SEC, 20 mM HEPES pH 7.4, 150 mM KCl, 1 mM DTT, 1 mM Mg^2+, 2 mM Ca^2+, CIB2 ∼70 µM (A2 band), Rec ∼80 µM, CaM ∼110 µM
  MW^SEC: 37.8 kDa
[3]; lower intensity shoulder A1 at lower elution time, predicted
  MW^SEC, A1 shoulder: 81.3 kDa
[3]; presence of DSBU cross-linker, 1 mM Mg^2+, 2 mM Ca^2+
  apparent MW (MW^SEC): 36.7 kDa
[4]; Ca^2+, collected immediately after SEC
  hydrodynamic diameter d^Ca: 8.18 nm
[4]; Mg^2+, A1 and A2 collected in one sample
  hydrodynamic diameter d^Mg: 8.43 nm and 8.4 nm
[5]
  dimer formation: found to form dimers

— article PMC6803640, “Oligomeric state, hydrodynamic properties and target recognition of human Calcium and Integrin Binding protein 2 (CIB2)” (Scientific Reports, 2019)
